This is an account of results in US20040038884A1, “Treatment of tinitus” (priority 2003, published 2004).

For one experiment, the system named is outer hair cells (OHCs). The experiment can be described thus: Whole-cell patch-clamp recordings of inhibitory postsynaptic currents on outer hair cells. The note with it: apamine 10 nM; OHCs held at −64 mV, high extracellular K+. It counts as cell-based, Wistar rats.
In experiment [1] the test system is alpha9/alpha10 heteromeric acetylcholine receptor. Nature of the experiment: Block of the acetylcholine receptor of the inner ear (stated finding, no method given).

Where no end group is shown, it is not given here.

Description for outer hair cells (OHCs): The preparation was performed in a solution containing (in mM) 144 NaCl, 5.8 KCl, 0.1 CaCl2, 2.1 MgCl2, 10 HEPES, 0.7 Na2HPO4, 5.6 glucose, pH adjusted to 7.3 with NaOH. For recordings, OHCs located between half and one turn from the apex of the cochlea were chosen. If necessary, supporting cells were removed with gentle suction from a cleaning pipette carefully avoiding mechanical disturbance of the efferent nerve terminals.
Whole-cell patch-clamp recordings were performed with an Axopatch 200B amplifier (Axon Instruments, Foster City, Calif.) at room temperature (22-25° C.). Electrodes were pulled from quartz glass, had resistances of 2-3 MΩ and were filled with intracellular solution (in mM): 135 KCl, 3.5 MgCl2, 0.1 CaCl2, 5 EGTA, 5 HEPES, 2.5 Na2ATP. The pH of the solution was adjusted to pH 7.3 with KOH. Membrane potential was corrected for the electrode junction potential (−4 mV). Whole-cell series resistance ranged from 4 to 9 MΩ and was not compensated. Currents were filtered at 1 kHz and sampled at 5 kHz.
The specimen were continuously superfused with extracellular solution (in mM: 144 NaCl, 5.8 KCl, 2 CaCl2, 0.9 MgCl2, 10 HEPES, 0.7 Na2HPO4, 5.6 glucose, pH adjusted to 7.3 with NaOH). Chemicals as well as depolarizing solutions were applied via a glass capillary (diameter approximately 80 μm) positioned close to the organ of Corti. […]

On to “apamine (CNCKAPETALCARRCQQH; not fully specified (C-terminus, bridges); cysteine pairing not given here; UniProt P01500 28-45, looked up)”, for which the “inhibition of postsynaptic currents (IPSCs)” value in the experiment with outer hair cells (OHCs) was “complete inhibition”.

Consider `CC12CC3CC(C)(C1)CC(N)(C3)C2` [memantine, 3.5-dimethyl-1-adamantan-amine], for which, in experiment [1], the “block of the acetylcholine receptor” value was “blocked efficiently”.
